Experimental findings from patent US9382203B2, “N-carbamoylmethyl-4-(R)-phenyl-2-pyrrolidinone, method of its preparation and pharmaceutical use” (Joint Stock Company (JSC) “OLAINFARM”, priority 2006, dated 2016) are described below.

Common to all, as to type: in vivo
In assay [1] the test system is male ICR mice. In words: Muscle relaxant activity, traction test. To be noted: Mus musculus, ip; i.p. administration in dosages 50; 100; 250 and 500 mg/kg.
Assay [2] deals with male ICR mice. In words: Muscle relaxant activity, chimney test. The conditions noted are these: Mus musculus, ip; i.p. administration in dosages 50; 100; 250 and 500 mg/kg.
Assay [3] deals with male ICR mice. Kind of assay: Open field test, locomotor activity. To be noted: for Horizontal activity counts / Vertical activity counts / Exploratory activity counts: male ICR mice.
The test system of assay [4] is male ICR mice. In words: Analgesic effect, hot plate test. To be noted: Mus musculus, ip; i.p. administration in dosages 50; 100; 250 and 500 mg/kg. On the technique in general: Thermal pain tests record how soon the animal reacts.
For assay [5], the system named is male ICR mice. In words: Porsolt forced swim test (FST). The conditions noted are these: for Immobility in FST (in words): after preliminary treatment, mice; for Immobilization time: i.p. 100 mg/kg, 1 hour before the test, male ICR mice.
For assay [6], the system named is male ICR mice. Kind of assay: Muscle relaxant activity, rota rod test. To be noted: Mus musculus, ip; i.p. administration in dosages 50; 100; 250 and 500 mg/kg. In general terms: In the rotarod test animals must keep their balance on a rotating rod.

SMILES strings stand for the structures. Marks after values point to notes of the source that are not given here.

What is called ED50 is the dose at which the effect has come halfway, by size or by number of responders.

For the molecule `NC(=O)CN1C[C@H](c2ccccc2)CC1=O` [S-Carphedon, N-Carbamoylmethyl-4(S)-phenyl-2-pyrrolidinone], the ED50 with male ICR mice [1] was found to be 548 ± 75 mg/kg; with male ICR mice [2], 286 ± 78 mg/kg; with male ICR mice [4], 50 ± 63 mg/kg; with male ICR mice [6], 459 ± 87 mg/kg. In addition, the results for the Horizontal activity counts in the assay with male ICR mice [3] (30 min after i.p. 50 mg/kg) and in the assay on male ICR mice [3] (120 min after i.p. 50 mg/kg) were 56.3 ± 5.7 counts and 36.4 ± 7.1 counts, respectively. Moreover, the Vertical activity counts in the assay on male ICR mice [3] (30 min after i.p. 50 mg/kg) came out at 7.0 ± 1.6 counts; with male ICR mice [3] (60 min after i.p. 50 mg/kg) it was 7.0 ± 2.8 counts; with male ICR mice [3] (120 min after i.p. 50 mg/kg), 4.9 ± 1.7 counts. Besides, the Exploratory activity counts was 7.8 ± 4.2 counts with male ICR mice [3] (60 min after i.p. 50 mg/kg) and 11.5 ± 2.8 counts in the assay on male ICR mice [3] (120 min after i.p. 50 mg/kg). The “Immobility in FST (in words)” value with male ICR mice [5] is listed as “immobilization in response to stress factor”. This molecule yielded an Immobilization time with male ICR mice [5] of 110 ± 12 s.

Consider `NC(=O)CN1C[C@@H](c2ccccc2)CC1=O` [R-Carphedon, N-Carbamoylmethyl-4(R)-phenyl-2-pyrrolidinone], for which the 50% effective dose (ED50) in the assay on male ICR mice [1] came out at 456 ± 122 mg/kg; in the assay on male ICR mice [2] it was 199 ± 38 mg/kg; in the assay on male ICR mice [4] it was 10 ± 42 mg/kg; in the assay with male ICR mice [6], 193 ± 26 mg/kg. Besides, the Exploratory activity counts in the assay with male ICR mice [3] (30 min after i.p. 50 mg/kg) is reported as 15.5 ± 2.9 counts; in the assay with male ICR mice [3] (60 min after i.p. 50 mg/kg) it was 16.4 ± 3.6 counts; with male ICR mice [3] (120 min after i.p. 50 mg/kg), 17.8 ± 4.7 counts. The Vertical activity counts with male ICR mice [3] (30 min after i.p. 50 mg/kg) is 10.0 ± 1.5 counts; with male ICR mice [3] (60 min after i.p. 50 mg/kg), 12.5 ± 3.2 counts; in the assay on male ICR mice [3] (120 min after i.p. 50 mg/kg), 11.6 ± 4.0 counts. Moreover, in the assay on male ICR mice [3] (i.p. 50 mg/kg), the “Activity at the end of the 120 min observation period relative to S-Carphedon” value is recorded as “about two times higher”. Besides, the “Animal activity in open field test (in words)” value with male ICR mice [3] (i.p. 50 mg/kg, 120 min observation period) is “prolonged and stable increase in animal activity”. The “Immobility in FST (in words)” value in the assay with male ICR mice [5] is “did not spent any time immobile”. Besides, the Immobilization time in the assay with male ICR mice [5] is 0^## sec.
